In the NIST ThermoML archive (doi:10.1021/acs.jced.8b00008):

Test: xn = mol fraction of the nth substance listed
Conditions: for viscosity / speed of sound / mass density: 102 kPa, Liquid; for viscosity: Concentric cylinders viscometry; for speed of sound: Single path-length method; for mass density: Vibrating tube method; for surface tension liquid-gas: 294 K, Pendant drop shape

CCC1CCCCC1 [ethylcyclohexane] + CCCCCCCCCCCC
Conditions	mass density [kg/m3]	speed of sound [m/s]	viscosity [mPa·s]
293.15 K, x1 = 0.1	751.13	1296.6	1.43
293.15 K, x1 = 0.216	754.22	1295.2	1.34
293.15 K, x1 = 0.2999	756.65	1294.3	1.3
293.15 K, x1 = 0.4	759.77	1293.4	1.22
293.15 K, x1 = 0.5	763.3	1292.4	1.16
293.15 K, x1 = 0.5999	767.13	1291.8	1.13
293.15 K, x1 = 0.7	771.4	1291.3	1.07
293.15 K, x1 = 0.8	776.25	1291.2	0.998
293.15 K, x1 = 0.9	781.76	1291.7	0.932
303.15 K, x1 = 0.1	743.84	1257.8	1.2
303.15 K, x1 = 0.216	746.88	1256.6	1.15
303.15 K, x1 = 0.2999	749.28	1255.1	1.1
303.15 K, x1 = 0.4	752.35	1254	1.04
303.15 K, x1 = 0.5	755.8	1253.1	0.966
303.15 K, x1 = 0.5999	759.56	1251.7	0.934
303.15 K, x1 = 0.7	763.73	1250.7	0.887
303.15 K, x1 = 0.8	768.48	1250	0.832
303.15 K, x1 = 0.9	773.85	1249.7	0.782
313.15 K, x1 = 0.1	736.53	1219.8	1.02
313.15 K, x1 = 0.216	739.51	1218.6	0.973
313.15 K, x1 = 0.2999	741.87	1216.7	0.939
313.15 K, x1 = 0.4	744.89	1215.3	0.899
313.15 K, x1 = 0.5	748.26	1214.3	0.876
313.15 K, x1 = 0.5999	751.95	1212.4	0.85
313.15 K, x1 = 0.7	756.03	1210.9	0.789
313.15 K, x1 = 0.8	760.66	1209.6	0.743
313.15 K, x1 = 0.9	765.89	1208.6	0.698
323.15 K, x1 = 0.1	729.18	1182.5	0.893
323.15 K, x1 = 0.216	732.1	1181.1	0.858
323.15 K, x1 = 0.2999	734.42	1179	0.823
323.15 K, x1 = 0.4	737.38	1177.4	0.79
323.15 K, x1 = 0.5	740.68	1176.1	0.759
323.15 K, x1 = 0.5999	744.29	1173.8	0.718
323.15 K, x1 = 0.7	748.27	1171.9	0.686
323.15 K, x1 = 0.8	752.78	1170	0.646
323.15 K, x1 = 0.9	757.88	1168.3	0.614
333.15 K, x1 = 0.1	721.79	1146.2	0.769
333.15 K, x1 = 0.216	724.65	1144.3	0.757
333.15 K, x1 = 0.2999	726.93	1142.1	0.713
333.15 K, x1 = 0.4	729.83	1140.5	0.685
333.15 K, x1 = 0.5	733.05	1138.6	0.667
333.15 K, x1 = 0.5999	736.58	1136.2	0.627
333.15 K, x1 = 0.7	740.46	1133.9	0.601
333.15 K, x1 = 0.8	744.85	1131.3	0.567
333.15 K, x1 = 0.9	749.79	1128.9	0.537

Conditions	surface tension liquid-gas [mN/m]
x1 = 0.216	25.1
x1 = 0.2999	25.1
x1 = 0.4	25.1
x1 = 0.5	25.1
x1 = 0.5999	25.2
x1 = 0.8	25.2
